Experimental data: paper PMC6843736 (Molecular Pain, 2019)
Where “and” joins values, the source holds several entries; their conditions need not be identical. Identical values can stand only once. Counter-ions that a name gives are not always drawn.

Assays:
[1] = test system: rats with trigeminal chronic constriction injury (CCI); assay: Whisker pad mechanical allodynia; assay type: in vivo, rat; details: for dose dependence of mechanical threshold at peak time: 2 h after treatment (gabapentin 1 h); for dose dependence of mechanical threshold at peak time / minimal dose required to restore mechanical threshold to baseline: i.p. or p.o.; for mechanical threshold 1 h after injection: ELB00824 3 mg/kg i.p. and/or gabapentin 0.3 mg/kg i.p., one-time dose; for peak time of mechanical threshold: i.p. or p.o. treatment; for effective dose decreasing neuropathic hypersensitivity: rodent trigeminal nerve injury models, pioglitazone i.p.; for attenuation of mechanical allodynia: doses as high as 1000 mg/kg
rats = assay: Observation of neurobehavioral adverse effects after single treatment in rats; assay type: in vivo, rat
mice with TIC injury [2] = assay: Zero maze anxiety test in mouse chronic TIC model; assay type: in vivo; details: six weeks, 2 h post treatment; for time spent in the closed area of the maze: ELB00824 10 mg/kg, carbamazepine 30 mg/kg
mice with TIC injury [3] = assay: Light/dark place preference anxiety test in mouse chronic TIC model; assay type: in vivo; details: six weeks; for latency to enter into the lighted chamber: two hours after injection
mice with TIC injury [4] = assay: Whisker pad mechanical allodynia; assay type: in vivo, mouse; details: for allodynia compared to vehicle, ipsilateral side, week 6 / whisker pad mechanical threshold at 2 h post injection, week 3: ELB00824 10 mg/kg i.p., carbamazepine 30 mg/kg i.p.; for time of peak effect: week 3, one-time i.p. dose
[5] = Pharmacokinetic/toxicokinetic study and BBB permeability in rats; assay type: in vivo, rat
Sprague-Dawley rats = assay: Preliminary 14-day repeat dose toxicity study in rats; assay type: in vivo, rat
human PPARɣ receptor = target: T1, human PPARɣ receptor (Homo sapiens, UniProt P37231); assay: PPARɣ transactivation luciferase reporter assay in HEK 293 T cells; assay type: cell-based
T1 sequence (P37231 1-505): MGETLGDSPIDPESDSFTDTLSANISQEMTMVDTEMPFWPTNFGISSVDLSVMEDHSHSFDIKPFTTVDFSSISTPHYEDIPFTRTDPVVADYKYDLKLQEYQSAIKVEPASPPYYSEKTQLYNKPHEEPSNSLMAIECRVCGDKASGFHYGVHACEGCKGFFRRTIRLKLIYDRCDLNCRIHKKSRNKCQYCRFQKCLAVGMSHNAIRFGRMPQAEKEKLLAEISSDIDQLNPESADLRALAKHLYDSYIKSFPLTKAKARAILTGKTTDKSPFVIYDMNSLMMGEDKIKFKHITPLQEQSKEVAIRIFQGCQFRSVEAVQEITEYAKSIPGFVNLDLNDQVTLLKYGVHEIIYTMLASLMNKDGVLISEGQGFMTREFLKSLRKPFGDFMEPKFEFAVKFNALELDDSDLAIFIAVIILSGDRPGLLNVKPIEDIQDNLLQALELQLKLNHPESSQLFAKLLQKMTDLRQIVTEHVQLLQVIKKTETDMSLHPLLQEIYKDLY

[6] = test system: mouse bone marrow erythroblast; assay: Genotoxicity study, micronucleus test; assay type: in vivo; details: up to highest concentration 500 mg/kg, intraperitoneal
hERG potassium channel = hERG potassium channel (Homo sapiens, UniProt Q12809); assay: In vitro cardiovascular toxicity study; assay type: biochemical
Chain of hERG potassium channel (Q12809 whole entry): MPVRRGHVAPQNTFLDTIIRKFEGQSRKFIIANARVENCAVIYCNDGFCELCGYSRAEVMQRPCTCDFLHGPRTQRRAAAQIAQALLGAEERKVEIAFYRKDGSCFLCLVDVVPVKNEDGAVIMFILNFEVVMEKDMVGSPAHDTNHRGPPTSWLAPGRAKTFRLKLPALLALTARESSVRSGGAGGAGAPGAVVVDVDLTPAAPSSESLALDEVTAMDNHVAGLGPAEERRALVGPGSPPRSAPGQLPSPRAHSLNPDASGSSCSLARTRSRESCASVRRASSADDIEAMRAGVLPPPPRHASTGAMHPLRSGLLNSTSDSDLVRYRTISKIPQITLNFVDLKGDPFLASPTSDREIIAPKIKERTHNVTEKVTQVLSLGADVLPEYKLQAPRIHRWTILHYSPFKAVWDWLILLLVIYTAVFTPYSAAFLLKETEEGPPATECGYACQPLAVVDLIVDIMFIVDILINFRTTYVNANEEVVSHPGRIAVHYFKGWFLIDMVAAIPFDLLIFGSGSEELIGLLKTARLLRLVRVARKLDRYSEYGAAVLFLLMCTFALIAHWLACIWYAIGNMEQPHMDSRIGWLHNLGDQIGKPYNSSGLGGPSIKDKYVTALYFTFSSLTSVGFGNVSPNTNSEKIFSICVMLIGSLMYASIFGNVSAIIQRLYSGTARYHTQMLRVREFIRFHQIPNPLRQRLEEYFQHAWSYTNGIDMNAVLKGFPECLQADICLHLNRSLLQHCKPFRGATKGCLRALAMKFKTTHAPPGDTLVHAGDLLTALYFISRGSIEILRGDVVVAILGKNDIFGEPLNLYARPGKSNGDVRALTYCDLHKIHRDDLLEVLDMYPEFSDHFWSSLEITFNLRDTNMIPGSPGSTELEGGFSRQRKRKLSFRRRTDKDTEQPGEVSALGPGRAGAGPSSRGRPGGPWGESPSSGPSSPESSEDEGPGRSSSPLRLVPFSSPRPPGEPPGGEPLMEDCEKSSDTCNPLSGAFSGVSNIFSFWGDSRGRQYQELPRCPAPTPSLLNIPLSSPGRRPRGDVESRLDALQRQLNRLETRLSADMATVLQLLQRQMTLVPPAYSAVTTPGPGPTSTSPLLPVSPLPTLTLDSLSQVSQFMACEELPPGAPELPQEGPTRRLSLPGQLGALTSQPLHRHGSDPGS

rat = details: i.p.; cited from earlier work
[7] = Sprague-Dawley, rat, plasma, po, 10 mg/kg
[8] = from AUC in μM·h, rat, 10 mg/kg i.p.
[9] = from AUC in μM·h, rat, 10 mg/kg i.p., 10 mg/kg
[10] = from AUC in μg·h/mL, rat, 10 mg/kg i.p.
[11] = from Cmax in μM, rat, 10 mg/kg i.p.
[12] = from Cmax in μM, rat, 10 mg/kg i.p., 10 mg/kg
[13] = from Cmax in μg/mL, rat, 10 mg/kg i.p.
[14] = male, Sprague-Dawley, rat, plasma, ip, 10 mg/kg
[15] = rat brain, 10 mg/kg i.p., 10 mg/kg

Structure (SMILES): NCC1(CC(=O)O)CCCCC1 [gabapentin, reference compound]
- time at which threshold was reduced to previous allodynic levels ([1]; 1 mg/kg single i.p. injection): 2 h
- dose dependence of mechanical threshold at peak time [1]: dose-dependently increased the mechanical threshold
- mechanical threshold 1 h after injection [1]: 4.9 ± 1.2 g
- peak time of mechanical threshold [1]: 1 h

Structure (SMILES): CCc1ccc(CC/C=C/c2ccc3c(c2)C(=O)CC3)cc1 [ELB00824, (E)-6–(4-(4-ethylphenyl)but-1-en-1-yl)-2,3-dihydro-1H-inden-1-one]
- observable neurobehavioral adverse effects (rats; doses of up to 1000 mg/kg i.p. or p.o., one week observation): not discernable
- latency to move to the closed area (mice with TIC injury [2]): 11.6 ± 3.9 s
- time spent in the closed area of the maze (mice with TIC injury [2]): 103 ± 21 s
- mechanical threshold at 1.5 h ([1]; 2.5 mg topical (7% cream, 50 mg/cm^2)): 8.9 ± 1.5 g
- mechanical threshold at 1.5 h ([1]; 5 mg topical (7% cream, 100 mg/cm^2)): 19.7 ± 3.1 g
- mechanical threshold at 3 h after treatment ([1]; 10 mg/kg i.p.): 3.5 ± 0.9 g
- ipsilateral whisker pad mechanical threshold ([1]; 10 mg/kg i.p., 1 h, 5-14 days post-CCI): 11.4 ± 2.2 g
- ipsilateral whisker pad mechanical threshold (peak) ([1]; 10 mg/kg i.p., 2 h, ELB00824 only): 14.9 ± 2.5 g
- mechanical threshold at 3 h after treatment ([1]; 10 mg/kg p.o.): 2.8 ± 0.5 g
- dose dependence of mechanical threshold at peak time [1]: dose-dependently increased the mechanical threshold
- mechanical threshold 1 h after injection [1]: 2.5 ± 0.3 g
- onset of symptom relief ([1]; higher dose topical): 0.5 h
- minimal dose required to restore mechanical threshold to baseline [1]: 10 mg/kg
- peak time of mechanical threshold [1]: 2 h
- effective dose decreasing neuropathic hypersensitivity [1]: 10 mg/kg
- onset of symptom relief ([1]; systematic treatment, either i.p. or p.o., 10 mg/kg): 1 h
- mechanical threshold at 3 h after treatment ([1]; topical treatment): 8.9 ± 1.1 g
- occupancy time and number of times that rearing occurred (mice with TIC injury [3]; compared with carbamazepine): less robust anti-anxiety behaviors
- latency to enter into the lighted chamber (mice with TIC injury [3]): 10 ± 12 s
- allodynia compared to vehicle, contralateral side, week 6 (mice with TIC injury [4]; 10 mg/kg i.p.): significantly improved allodynia
- mechanical threshold relative to carbamazepine, week 3 (mice with TIC injury [4]; 2 h post injection): 4.3 fold
- allodynia compared to vehicle, ipsilateral side, week 6 (mice with TIC injury [4]): significantly improved allodynia
- whisker pad mechanical threshold at 2 h post injection, week 3 (mice with TIC injury [4]): 6 ± 0.0 g
- time of peak effect (mice with TIC injury [4]): 2 h
- Tmax ([5]; Sprague-Dawley, rat, brain, po, 10 mg/kg): 3 h
- AUC(0-t) [5, 7]: 3030 ng·h/mL
- Cmax [5, 7]: 350 ng/mL
- Tmax [5, 7]: 1 h
- Plasma AUC0–24h ratio ELB00824/Pioglitazone [5, 8]: 0.3
- Plasma AUC0–24h ratio ELB00824/Rosiglitazone [5, 8]: 0.4
- Brain AUC0–24h ratio ELB00824/Pioglitazone [5, 9]: 15
- Brain AUC0–24h ratio ELB00824/Rosiglitazone [5, 9]: 21
- Brain AUC0–24h ratio ELB00824/Pioglitazone [5, 10]: 11
- Brain AUC0–24h ratio ELB00824/Rosiglitazone [5, 10]: 17
- Plasma AUC0–24h ratio ELB00824/Pioglitazone [5, 10]: 0.2
- Plasma AUC0–24h ratio ELB00824/Rosiglitazone [5, 10]: 0.3
- Plasma Cmax ratio ELB00824/Pioglitazone [5, 11]: 0.2
- Plasma Cmax ratio ELB00824/Rosiglitazone [5, 11]: 0.3
- Brain Cmax ratio ELB00824/Pioglitazone [5, 12]: 5.4
- Brain Cmax ratio ELB00824/Rosiglitazone [5, 12]: 6.7
- Brain Cmax ratio ELB00824/Pioglitazone [5, 13]: 4.0
- Brain Cmax ratio ELB00824/Rosiglitazone [5, 13]: 5.5
- Plasma Cmax ratio ELB00824/Pioglitazone [5, 13]: 0.1
- Plasma Cmax ratio ELB00824/Rosiglitazone [5, 13]: 0.2
- concentration at 1 h ([5]; male, Sprague-Dawley, rat, brain, po, 10 mg/kg): 1160 ng/mL and 4.01 µM
- concentration at 1 h ([5]; male, Sprague-Dawley, rat, brain, po, 30 mg/kg): 4110 ng/mL and 14.2 µM
- concentration at 1 h ([5]; male, Sprague-Dawley, rat, brain, po, 120 mg/kg): 7570 ng/mL and 26.1 µM
- concentration at 1 h ([5]; male, Sprague-Dawley, rat, brain, po, 450 mg/kg): 11000 ng/mL and 38 µM
- Kp ([5]; male, Sprague-Dawley, rat, brain/plasma, ip, 10 mg/kg): 5.13
- AUC(0-t) [5, 14]: 6550 ng·h/mL and 22.6 µM·h
- Cmax [5, 14]: 1120 ng/mL and 3.85 µM
- Tmax [5, 14]: 0.5 h
- concentration at 1 h ([5]; male, Sprague-Dawley, rat, plasma, po, 10 mg/kg): 270 ng/mL and 940 nM
- concentration at 1 h ([5]; male, Sprague-Dawley, rat, plasma, po, 30 mg/kg): 820 ng/mL and 2.81 µM
- concentration at 1 h ([5]; male, Sprague-Dawley, rat, plasma, po, 120 mg/kg): 1510 ng/mL and 5.2 µM
- concentration at 1 h ([5]; male, Sprague-Dawley, rat, plasma, po, 450 mg/kg): 2200 ng/mL and 7.57 µM
- Brain AUC0–24h ([5]; rat brain, 10 mg/kg p.o.): 10370 ng·h/mL
- Brain Cmax ([5]; rat brain, 10 mg/kg p.o.): 1.82 µg/mL
- plasma Cmax and AUC0–24h relative to those of pioglitazone or rosiglitazone ([5]; rat plasma, 10 mg/kg i.p.): less than 0.3 fold
- relative brain bioavailability (AUC0–24h) of oral versus i.p. injection ([5]; rat, 10 mg/kg): 31%
- relative plasma bioavailability (AUC0–24h) of oral versus i.p. injection ([5]; rat, 10 mg/kg): 46%
- hematological, blood coagulation and serum biochemistry parameters (55 parameters) compared with controls (Sprague-Dawley rats; day 15, male and female): No significant changes
- hemoglobin and hematocrit values vs control (Sprague-Dawley rats; male 450 mg/kg group, day 15): slightly lower hemoglobin and hematocrit values
- maximal activities (% control), PPARɣ activation (human PPARɣ receptor): 45 ± 4%
- chromosome damage in mouse bone marrow erythroblast [6]: did not induce a significant increase of chromosome damage
- IC50 (hERG potassium channel): > 30 µM

Structure (SMILES): O=C(Nc1ccccc1)c1cc([N+](=O)[O-])ccc1Cl [GW9662, reference compound]
- change of mechanical threshold ([1]; 10–30 mg/kg i.p. alone, 1 to 4 h after injection): did not change mechanical threshold

Structure (SMILES): CC(=O)Nc1ccc(O)cc1 [acetaminophen, reference compound]
- attenuation of mechanical allodynia [1]: neither acetaminophen nor ibuprofen attenuated mechanical allodynia

Structure (SMILES): CN(CCOc1ccc(CC2SC(=O)NC2=O)cc1)c1ccccn1 (stereo not shown) [Rosiglitazone, rosiglitazone, reference compound]
- attenuation of mechanical allodynia [1]: did not attenuate mechanical allodynia
- AUC(0-t) [5, 14]: 22800 ng·h/mL and 63.7 µM·h
- Cmax [5, 14]: 4500 ng/mL and 12.6 µM
- Brain Cmax [5, 15]: 0.50 ± 0.06 μg/mL and 1.41 ± 0.27 μM

Structure (SMILES): CC(C)Cc1ccc(C(C)C(=O)O)cc1 (stereo not shown) [ibuprofen, reference compound]
- attenuation of mechanical allodynia [1]: neither acetaminophen nor ibuprofen attenuated mechanical allodynia

Structure (SMILES): CCc1ccc(CCOc2ccc(CC3SC(=O)NC3=O)cc2)nc1 (stereo not shown) [Pioglitazone, pioglitazone hydrochloride, reference compound]
- toxic signs and symptoms (rats; 300 mg/kg i.p. or p.o., most rats, beginning one day after treatment): showed toxic signs and symptoms
- dose dependence of mechanical threshold at peak time [1]: dose-dependently increased the mechanical threshold
- minimal dose required to restore mechanical threshold to baseline [1]: 1000 mg/kg
- peak time of mechanical threshold [1]: 2 h
- effective dose decreasing neuropathic hypersensitivity [1]: 1000 mg/kg
- Tmax ([5]; male, Sprague-Dawley, rat, brain, ip, 10 mg/kg): 1 h
- AUC(0-t) [5, 14]: 34500 ng·h/mL and 87.7 µM·h
- Cmax [5, 14]: 9770 ng/mL and 24.9 µM
- Brain Cmax [5, 15]: 0.68 ± 0.14 μg/mL and 1.73 ± 0.22 μM
- rat LD50 (rat): 558 to 587 mg/kg

Structure (SMILES): NC(=O)N1c2ccccc2C=Cc2ccccc21 [carbamazepine, reference compound]
- latency to move to the closed area (mice with TIC injury [2]): significantly increased latency
- zone transitions (mice with TIC injury [2]; vs vehicle): significantly more
- time spent in the closed area of the maze (mice with TIC injury [2]): did not show significant differences
- latency to enter into the lighted chamber (mice with TIC injury [3]): decreased latency
- allodynia compared to vehicle, ipsilateral side, week 6 (mice with TIC injury [4]): significantly improved allodynia
- whisker pad mechanical threshold at 2 h post injection, week 3 (mice with TIC injury [4]): 1.4 ± 0.2 g
- time of peak effect (mice with TIC injury [4]): 2 h
